In patent US9566269B2, “Modified release compositions of epalrestat or a derivative thereof and methods for using the same” (Bionevia Pharmaceuticals Inc., priority 2011, dated 2017):

Assays:
[1] = cited from earlier work
[2] = cited from earlier work; remark: listed apart in the source
[3] = Ionization study in different pH environments (calculated from pKa); type: physicochemical
Method: The percentage ionization of Epalrestat in different pH environments of the human gastrointestinal tract was calculated based on the pKa value (3.61).

[4] = immediate release 50 mg dosage, healthy adult volunteers

% Ionized ([3]; pH 1.2): 0%
% Ionized ([3]; pH 3.0): 20.0%
% Ionized ([3]; pH 3.5): 44.0%
% Ionized ([3]; pH 4.0): 71.0%
% Ionized ([3]; pH 4.5): 89.0%
% Ionized ([3]; pH 5.0): 96.0%
% Ionized ([3]; pH 5.5): 99.0%
% Ionized ([3]; pH 6.0): 100.0%
% Ionized ([3]; pH 6.8): 100.0%
Structure (SMILES): C/C(C=C1SC(=S)N(CC(=O)O)C1=O)=C\c1ccccc1 (single isomer, unassigned) [epalrestat, 5-[(1Z,2E)-2-methyl-3-phenylpropenylidene]-4-oxo-2-thioxo-3-thiazolidineacetic acid]
pKa value [1]: 3.61
Plasma level ([2]; 4 hours after administration of 50 mg tablets of epalrestat free acid): 370 ng/mL
Cmax [2, 4]: 3900 ng/mL
t1/2 [2, 4]: 1.8 h
tmax [2, 4]: 1.05 h
total AUC0-∞ [2, 4]: 6400 ng·h/mL
